Experimental data taken from ChEMBL document CHEMBL1201862, “PubChem BioAssay data set” (2004).
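Where inhibition never reached the appropriate level, the endpoint shown equals the highest concentration tested. Otherwise, values were interpolated linearly from a five-concentration, 48-hour dose response in 96-well plates. The concentration for 50% growth inhibition is given as GI50.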 Active and inactive are the calls of the source. Cut-off read from the data, not from the text of the source: active = GI50 up to about 1.1 µM and inactive = higher. Residues, ends and D or L forms follow the SMILES beside them. Peptide text beside a SMILES is read from it. * marks the point of attachment. *: point of attachment. Cbz = O=C(OCc1ccccc1)*; Boc = CC(C)(C)OC(=O)*; OBn = c1ccc(CO*)cc1

What was measured:
Assay in all cases: NCI-60 cell line screen, 48 h
[1] = tested on: EKVX
[2] = tested on: OVCAR-3
[3] = tested on: SK-MEL-28
[4] = tested on: MCF7
[5] = tested on: RXF 393
[6] = tested on: OVCAR-8
[7] = tested on: SF-295
[8] = tested on: A498
[9] = tested on: NCI/ADR-RES
[10] = tested on: CAKI-1
[11] = tested on: RPMI-8226
[12] = tested on: KM12
[13] = tested on: UACC-257
[14] = tested on: SF-268
[15] = tested on: SNB-19
[16] = tested on: SR
[17] = tested on: 786-0
[18] = tested on: TK-10
[19] = tested on: UACC-62
[20] = tested on: SK-MEL-2

Measured: GI50

Cc1csc2c(=O)n(C3OC(CO)C(O)C3O)c(=O)[nH]c12 (configuration not stated)
inactive: [1] > 100 µM | [2] > 100 µM | [3] > 100 µM | [4] > 100 µM | [5] > 100 µM | [6] > 100 µM | [7] > 100 µM | [8] > 100 µM | [9] > 100 µM | [10] > 100 µM | [11] > 100 µM | [12] > 100 µM | [13] > 100 µM | [14] > 100 µM | [15] > 100 µM | [16] > 100 µM | [17] > 100 µM | [18] 39.5 µM

COc1cc2c(cc1OC)C13CC[N+]4(C)CC5=CCOC6CC(=O)N2C1C6C5CC34[O-] (configuration not stated)
inactive: [1] > 100 µM | [2] > 100 µM | [3] > 100 µM | [4] > 100 µM | [5] > 100 µM | [6] > 100 µM | [7] > 100 µM | [8] > 100 µM | [9] > 100 µM | [10] > 100 µM | [11] > 100 µM | [12] > 100 µM | [13] > 100 µM | [14] > 100 µM | [15] > 100 µM | [19] > 100 µM | [16] > 100 µM | [17] > 100 µM | [18] > 100 µM

CCOC(=O)CCC(NC(=O)OCc1ccccc1)C(=O)NC(CCC(=O)OCC)C(=O)OCC (configuration not stated) (Cbz-Glu(OEt)-Glu(OEt)-OEt; configuration not given here)
inactive: [1] > 100 µM | [2] > 100 µM | [3] > 100 µM | [20] > 100 µM | [4] > 100 µM | [5] > 100 µM | [6] > 100 µM | [7] > 100 µM | [8] > 100 µM | [9] > 100 µM | [10] > 100 µM | [11] > 100 µM | [12] > 100 µM | [13] > 100 µM | [14] > 100 µM | [15] > 100 µM | [19] > 100 µM | [16] > 100 µM | [17] > 100 µM

CN1C=COC1N=C1CCCCC1 (configuration not stated)
inactive: [1] > 100 µM | [2] > 100 µM | [3] > 100 µM | [20] > 100 µM | [4] > 100 µM | [5] > 100 µM | [6] > 100 µM | [7] > 100 µM | [8] > 100 µM | [9] > 100 µM | [10] 3.74 µM | [11] > 100 µM | [12] > 100 µM | [14] > 100 µM | [15] 4.02 µM | [19] > 100 µM | [16] > 100 µM | [17] > 100 µM | [18] > 100 µM

COc1cc2c3c(n(C)c(=O)c2cc1OC)-c1cc2c(cc1/C3=C/CCCCBr)OCO2
inactive: [1] > 100 µM | [3] > 100 µM | [20] > 100 µM | [4] 4.73 µM | [5] > 100 µM | [6] > 100 µM | [7] 4.5 µM | [8] 19.8 µM | [9] > 100 µM | [10] 5.86 µM | [11] 2.54 µM | [12] > 100 µM | [13] > 100 µM | [14] 37.4 µM | [15] > 100 µM | [16] 1.57 µM | [17] 17.1 µM | [18] > 100 µM

O=C(CCn1ccnc1[N+](=O)[O-])NCCCn1ccnc1[N+](=O)[O-]
inactive: [1] > 100 µM | [2] > 100 µM | [3] > 100 µM | [20] > 100 µM | [4] > 100 µM | [5] > 100 µM | [6] > 100 µM | [7] > 100 µM | [8] > 100 µM | [9] > 100 µM | [10] > 100 µM | [11] > 100 µM | [12] > 100 µM | [13] > 100 µM | [14] > 100 µM | [19] > 100 µM | [16] > 100 µM | [17] > 100 µM | [18] > 100 µM

O=c1[nH]c2ccccc2c2oc(-c3ccccc3)nc12
inactive: [1] > 100 µM | [2] > 100 µM | [20] 24.2 µM | [4] 44.8 µM | [5] 20.4 µM | [6] 22.4 µM | [7] 23.9 µM | [8] 27 µM | [9] > 100 µM | [10] 18.9 µM | [11] 27.9 µM | [12] 50.5 µM | [13] > 100 µM | [14] 21.3 µM | [15] 26.1 µM | [19] 88.3 µM | [16] 15.9 µM | [17] 23.6 µM | [18] 54.6 µM

O=C(O)/C(=C/C(=O)c1ccc(Cl)cc1)NNc1ccc([N+](=O)[O-])cc1[N+](=O)[O-]
inactive: [1] > 100 µM | [2] 33.3 µM | [3] 43.5 µM | [20] 31.7 µM | [4] 52.4 µM | [6] 29.5 µM | [7] 41.4 µM | [8] > 100 µM | [9] 45.8 µM | [10] 24.8 µM | [11] 28.5 µM | [12] 51.8 µM | [13] > 100 µM | [14] 38.7 µM | [15] 43.4 µM | [19] 38.7 µM | [16] 50.9 µM | [17] 27 µM | [18] 57.5 µM

CC(=O)OC[C@@]12C[C@H]3C(=O)C(C)(C)C[C@H]3[C@]1(C)[C@@H](OC(C)=O)[C@]1(O)[C@H]([C@@H](OC(=O)c3ccccc3)[C@@H](C)[C@H]1OC(C)=O)[C@H]2OC(C)=O
inactive: [1] > 20 µM | [2] > 20 µM | [20] > 20 µM | [4] > 20 µM | [5] > 20 µM | [6] > 20 µM | [7] 15.3 µM | [8] > 20 µM | [9] > 20 µM | [10] > 20 µM | [12] > 20 µM | [13] > 20 µM | [14] > 20 µM | [15] > 20 µM | [19] > 20 µM | [16] > 20 µM | [17] > 20 µM | [18] > 20 µM

CC(C)CC(NC(=O)OC(C)(C)C)C(=O)NC(CC(=O)OCc1ccccc1)C(N)=O (stereo not drawn) (Boc-Leu-Asp(OBn)-NH2; configuration not given here)
inactive: [1] > 100 µM | [2] > 100 µM | [3] > 100 µM | [20] > 100 µM | [4] > 100 µM | [5] > 100 µM | [6] > 100 µM | [7] > 100 µM | [8] > 100 µM | [9] > 100 µM | [10] > 100 µM | [12] > 100 µM | [13] > 100 µM | [14] > 100 µM | [15] > 100 µM | [19] > 100 µM | [16] > 100 µM | [17] > 100 µM | [18] > 100 µM
